In patent publication US20250302831A1, “THERAPY FOR ALCOHOL-RELATED LIVER DISEASE” (THE REGENTS OF THE UNIVERSITY OF CALIFORNIA, priority 2021, published 2025):

Experiments:
hM4 = target: T1, hM4 (Homo sapiens, UniProt P08173); conditions: read-out: hM4 (PAM) EC50; cited from earlier work
T1 sequence (P08173 1-479): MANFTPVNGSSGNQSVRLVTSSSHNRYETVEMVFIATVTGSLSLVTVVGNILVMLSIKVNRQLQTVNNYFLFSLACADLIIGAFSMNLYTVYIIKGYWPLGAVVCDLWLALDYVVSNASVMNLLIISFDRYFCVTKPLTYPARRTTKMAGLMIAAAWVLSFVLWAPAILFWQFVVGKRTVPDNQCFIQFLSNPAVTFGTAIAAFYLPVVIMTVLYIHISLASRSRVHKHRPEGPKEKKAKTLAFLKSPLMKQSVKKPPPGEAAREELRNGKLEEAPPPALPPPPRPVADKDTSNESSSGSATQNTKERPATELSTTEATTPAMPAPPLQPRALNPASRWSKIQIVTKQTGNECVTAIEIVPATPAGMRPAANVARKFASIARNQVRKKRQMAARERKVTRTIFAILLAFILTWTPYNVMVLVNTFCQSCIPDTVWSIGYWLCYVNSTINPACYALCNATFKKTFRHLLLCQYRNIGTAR

[1] = test system: WT C57BL/6 mice fed ethanol containing Lieber DeCarli diet; assay: mAChR4 PAM VU0467154 in chronic ethanol feeding (Lieber DeCarli diet) of WT mice; type: in vivo, mouse
Source text: Female mice (age, 8 weeks) were placed on Lieber DeCarli diet for 10 weeks as previously described (Llorente et al., 2017). In brief, the Lieber DeCarli diet comprises Micro Stabilized Rod Liq AC IRR 438 (LD101A; TestDiet), Maltodextrin IRR (9598; TestDiet) and 200-proof ethanol (Koptec). The caloric intake from ethanol was 0 on day 1, 10% of total calories on days 2 and 3, 20% on days 4 and 5, 30% from day 6 until the end of 6 weeks, and 36% until the end of the treatment. Control mice received an isocaloric amount of iso-maltose instead of ethanol.
To enhance GAP formation, WT C57BL/6 mice fed Lieber DeCarli diet containing ethanol or isocaloric iso-maltose for 10 weeks were treated for the last 29 days with the specific mAChR4 PAM VU0467154 (5 mg/kg), which was dissolved in the liquid diet. […]
Real-time quantitative PCR. RNA was extracted from mouse tissues and cDNA was generated 511 (Duan et al., 2019). Primer sequences for mouse genes were obtained from the NIH qPrimerDepot. Gene expression was determined with Sybr Green (Bio-Rad Laboratories) using ABI StepOnePlus real-time PCR system. The qPCR value was normalized to Tbp or 18S housekeeping genes. To quantify the total bacterial load in feces, the 515 qPCR value of 16S rRNA gene for each sample was multiplied by the total amount of DNA (μg) mg^−1 of feces. Published bacterial primer sequences were used for 16S rRNA gene (Maeda et al., 2003) (Table 3). […]
Flow cytometry. Isolation: Small intestine was harvested, and the epithelial cell layer was removed. Pieces were digested in media containing 1 mg/mL collagenase (Millipore Sigma), 0.1 U/mL dispase (Worthington Biochem) and 0.1 mg/mL DNase I (Millipore Sigma) at 37° C. at 150 rpm for 30 minutes. A 40% and 80% Percoll gradient was used to collect the lymphoid fractions at the interphase. Flow cytometry: LP-immune cells were pelleted and blocked with anti-mouse CD16/32 antibody (Thermo Fisher) for 15 minutes. Cells were divided to perform 3 different panels to analyze APCs, ILC3 and Tregs.
Stimulation and staining: To stimulate IL-23 secretion by LP-DCs, cells were re-stimulated in vitro with 100 ng/ml flagellin (Invivogen) for 2.5 hours in the presence of 0.7 μl/ml BD GolgiStop™ (BD Bioscience) to accumulate cytokines and/or proteins. The murine APC panel consisted of CD45.2 (V500, clone 104, BD), CD11c (FITC, clone N418, ThermoFisher), MHC Class II (I-A/I-E) (PE, clone M5/114. 15.2, ThermoFisher), CD11b (PerCP544 Cy5.5, clone M1/70, BD), CD103 (APC-R700, clone M290, BD), CX3CR1 (BV421, clone SA011F11, BioLegend), fixable viability stain (FVS) (575V, BD), IL-10 (BV711, clone JES5-16E3, BD) and IL-23 p19 (AF647, clone N71-1183).
Immunoblot analyses. To measure expression levels of mAChR4, GCs were isolated as described above. Immunoblot analysis was performed as described 33 using anti-AChR4 1:1000 (#AMR-004; Alomone labs) and anti-β-actin 1:5000 (Sigma-Aldrich) antibody as loading control. Protein from proximal small intestine was extracted and immunoblot analysis was performed using anti-Reg3g 1:500 (ab198216, Abcam), anti-Reg3b 1:500 (ABIN1870289, Antibodies online), and anti-IL-10 1:1000 (sc-365858; Santa Cruz Biotechnology) antibodies. Stain-free imaging technology using polyacrylamide gels (BioRad) containing a proprietary trihalo compound to make proteins fluorescent, was employed to calculate total protein. Immunoblots were visualized with a charged coupling device camera in a luminescent image analyzer (Gel-Doc; Bio-Rad). Immunoblots were analyzed by densitometry, using Image Lab version 6.0.1 software (Bio-Rad).

[2] = Bubser 2014; Pancani 2015; Gould 2018; cited from earlier work
[3] = Bubser 2014; Pancani 2015; Gould 2018; cited from earlier work; remark: listed apart in the source
rodent model = conditions: systemic administration; Walker et al., 2020; cited from earlier work
mAChR4 = target: T2, mAChR4 (Homo sapiens, UniProt P08173); conditions: target not printed with the value; cited from earlier work
T2 sequence (P08173 1-479): T1 sequence (P08173 1-479)

[4] = test system: small intestinal organoids from WT mice; assay: IL-6 stimulation of small intestinal organoids (Chrm4 mRNA, mAChR4 immunoblot); type: cell-based, mouse; conditions: IL-6 20 ng/ml in the presence of ethanol for 12 hours
Description: Real-time quantitative PCR. RNA was extracted from mouse tissues and cDNA was generated 511 (Duan et al., 2019). Primer sequences for mouse genes were obtained from the NIH qPrimerDepot. Gene expression was determined with Sybr Green (Bio-Rad Laboratories) using ABI StepOnePlus real-time PCR system. The qPCR value was normalized to Tbp or 18S housekeeping genes. To quantify the total bacterial load in feces, the 515 qPCR value of 16S rRNA gene for each sample was multiplied by the total amount of DNA (μg) mg^−1 of feces. Published bacterial primer sequences were used for 16S rRNA gene (Maeda et al., 2003) (Table 3).
Small intestinal organoid isolation and culture. Small intestinal crypts were isolated from WT mice, cultured and stained as described 41 and treated with ethanol (10 and 50 mM) and IL-6 (20 ng/ml) (Biolegend) for 12 hours.
Immunoblot analyses. To measure expression levels of mAChR4, GCs were isolated as described above. Immunoblot analysis was performed as described 33 using anti-AChR4 1:1000 (#AMR-004; Alomone labs) and anti-β-actin 1:5000 (Sigma-Aldrich) antibody as loading control. […] Immunoblots were analyzed by densitometry, using Image Lab version 6.0.1 software (Bio-Rad).

cultured GCs = assay: IL-6 treatment of cultured goblet cells; type: cell-based
[5] = ethanol diet 10 weeks, 5 mg/kg in the diet during the last 29 days
[6] = ethanol fed mice, anaerobic culture
[7] = ethanol fed mice, cells stimulated with flagellin 100 ng/ml 2.5 hours
[8] = ethanol fed mice, proximal small intestine

## CCOC(=O)N1CCCC(N2CCC(c3cccnc3OC)CC2)CC1 (centres unmarked) [PT-6950]
hM4
  EC50: 0.02 µM

## Cc1nnc2sc(C(=O)NCc3ccc(S(=O)(=O)C(F)(F)F)cc3)c(N)c2c1C [VU0467154]
[1]; [5]
  ethanol-induced liver inflammation (hepatic Cxcl1 mRNA): protected
  ethanol-induced liver injury (plasma ALT, H&E): protected
  ethanol-induced steatosis (ORO-stained liver sections): protected
[1]; ethanol diet 10 weeks, 5 mg/kg in the diet during the last 29 days, small intestine
  ethanol-induced GAP closure (number of GAPs per villus): reduced
[1]; [6]
  ethanol mediated bacterial translocation to MLN (CFU): prevented
  ethanol mediated bacterial translocation to liver (CFU): prevented
[1]; [7]
  Frequencies of CD103+ CD11b+ DC populations: increased
  Frequencies of LP-APCs (CD11c+, MHCII+): increased
[1]; [8]
  intestinal IL-10 expression (immunoblot): induced
  intestinal Reg3b expression (immunoblot): induced
  intestinal Reg3g expression (immunoblot): induced
[2]
  gastrointestinal motility side effects: no gastrointestinal motility side effects
[3]
  oral bioavailability: excellent
Rodent model
  ethanol seeking and consumption: reduced

## Cc1nnc2sc(C(=O)NC3CN(c4cccnc4)C3)c(N)c2c1C [PT-1148]
hM4
  EC50: 0.003 µM

## Cc1cc(C)c2c(N)c(C(=O)NC3CN(c4cccnc4)C3)sc2n1 [PT-3763]
hM4
  EC50: 0.045 µM

## Cc1cc2c(nc1N1CCC(Oc3ccc4c(c3)COC4)CC1)CNC2=O [MK-4710]
mAChR4
  IC50: 0.017 µM

## IL-6: cytokine (Biolegend) used at 20 ng/ml on organoids
[4]
  mAChR4 expression (Chrm4 mRNA, mAChR4 protein): induced
Cultured GCs
  mAChR4 expression: induced
